Test system: hAPP transgenic mice
Test: Extent of CAA in brain sections of hAPP transgenic mice after 8 weeks of treatment, Thioflavin S staining
Format: in vivo
Details: for # of animals with CAA: nine week old hAPP transgenic mice
Protocol: The ability of compounds of the invention to inhibit CAA was measured in the following example. Nine week old hAPP transgenic mice were treated for a period of 8 weeks with two different concentrations of a compound of the present invention, 3-amino-1-propanesulfonic acid, sodium salt, 100 and 30 mg/kg. Mice were administered the compound for 8 weeks, after which they were sacrificed and their brains were perfused and processed for histological staining with Thioflavin S. This method may also be used as a screening method for determining activity of a candidate compound for inhibiting CAA.
The extent of CAA in brain sections obtained from these animals was qualitatively determined following staining.

[1] = 100 mg/kg (printed 100 mg · kg), hAPP transgenic mice
[2] = 100 and 30 mg/kg, hAPP transgenic mice, versus vehicle

In the case of `NCCCS(=O)(=O)[O-].[Na+]` [3-amino-1-propanesulfonic acid, sodium salt], the “CAA Severity + (slight deposition), animals with grade/animals with CAA” value (30 mg/kg, hAPP transgenic mice) is reported as 6/10, the “CAA Severity ++ (moderate deposition), animals with grade/animals with CAA” value (30 mg/kg, hAPP transgenic mice) is reported as 4/10 and the CAA animals/total animals (30 mg/kg, hAPP transgenic mice) is reported as 10/11. The “# of animals with CAA” value (30 mg/kg, 11 animals in study) was 10, the “CAA Severity + (slight deposition), animals with grade/animals with CAA” value [1] was 9/10 and the “CAA Severity +++ (severe deposition), animals with grade/animals with CAA” value [1] was 1/10. The CAA animals/total animals [1] was 10/15, the “# of animals with CAA” value (100 mg/kg (printed 100 mg · kg), 15 animals in study) was 10 and the “effect on the severity of the deposition seen in the brain vasculature” value [2] was “showing an effect”. For the same compound, the “reducing the number of mice showing CAA” value [2] was “effective”.
